Assay results taken from patent publication US20130217713A1, “PREDICTIVE MARKER FOR EGFR INHIBITOR TREATMENT” (Hoffmann-La Roche Inc., priority 2007, published 2013).
Read-outs that look alike come from different tables or passages of the source.

Assays:
[1] = patients with cancer, 150 mg/day; compared with targeted average plasma concentration; cited from earlier work
[2] = test system: NSCLC; conditions: single agent, NSCLC patients after failure of standard therapy for advanced disease; cited from earlier work
[3] = test system: advanced NSCLC; conditions: 75 patients with qRT-PCR results
[4] = test system: NSCLC; conditions: cited from earlier work
[5] = test system: NSCLC; conditions: second line therapy of NSCLC; cited from earlier work

C#Cc1cccc(Nc2ncnc3cc(OCCOC)c(OCCOC)cc23)c1 [Tarceva, erlotinib]
drug levels in plasma [1]: > 500 ng/mL | survival [2]: significantly prolongs and improves the survival | PD [3]: 39 (52%) n (%) | partial response (PR) [3]: 4 (5%) n (%)

CC(=O)O[C@@]12CO[C@@H]1C[C@H](O)[C@@]1(C)C(=O)[C@H](O)C3=C(C)[C@@H](OC(=O)[C@H](O)[C@@H](NC(=O)OC(C)(C)C)c4ccccc4)C[C@@](O)([C@@H](OC(=O)c4ccccc4)[C@H]21)C3(C)C [docetaxel]
survival, third-line treatment or beyond ([4]; docetaxel as third-line treatment or beyond): no prolongation of survival | survival ([4]; second line after cisplatin-based first-line regimens failed, ECOG 0, 1 or 2): improved survival

Nc1nc2[nH]cc(CCc3ccc(C(=O)N[C@@H](CCC(=O)O)C(=O)O)cc3)c2c(=O)[nH]1 [pemetrexed]
efficacy compared with docetaxel [5]: clinically equivalent efficacy | side effects compared with docetaxel [5]: significantly fewer side effects
